Source: US20010038824A1, “Intranasal cyclic peptide formulations” (priority 2000, published 2001)
Numbered stars: 1 amine (or outer) side, 2 acyl side, 3 side chain; on linkers, the order of the positions; unused ones are H or OH. Bridge positions count the residues as written; N and C are the ends. Square brackets hold non-standard residues; d marks the D form. Peptide text beside a SMILES is read from it. * marks the point of attachment. ξ: configuration not given here. Hexadecanoyl(3R-amino) = CCCCCCCCCCCCC[C@H](CC(=O)[*:2])N[*:1]; X11 = CCCCCOc1ccc(-c2ccc(CC[C@H](CC(=O)[*:1])N[*:2])cc2)cc1; ξTyr(3-NO2) = NC(Cc1ccc(O)c([N+](=O)[O-])c1)C(=O)O; X15 = CCCCCCCCCCCCCCC[C@H](CC(=O)[*:2])N(C)[*:1]; X16 = NCC(=O)Nc1cc(CC(N[*:1])C(=O)[*:2])ccc1O; X4 = CCCCCCCCCCCCC[C@H](CC(=O)[*:1])O[*:2]; X3 = NCCCN(CCCC(N[*:1])C(=O)[*:2])[*:3]; X2 = NC(=O)CC(O)C(N[*:1])C(=O)[*:2]; X12 = CN(C)CCCC(N[*:1])C(=O)[*:2]; X1 = O=C(C1C(O)CCN1[*:1])[*:2]; ξOrn(3-OH) = NCCC(O)C(N)C(=O)O; ξY = NC(Cc1ccc(O)cc1)C(=O)O; X14 = NCCCNC(CCCN)C(=O)*; X13 = CCCCCCCCCCCCCCCN*; ξHyp = O=C(O)C1CC(O)CN1; ξOrn = NCCCC(N)C(=O)O; ξT = CC(O)C(N)C(=O)O; ξV = CC(C)C(N)C(=O)O; ξP = O=C(O)C1CCCN1; ξA = CC(N)C(=O)O; Sar = CNCC(=O)O

Legend:
Assay type in all cases: cell-based
mouse hepatocytes = test: In vitro hepatotoxicity test; conditions: mouse hepatocyte monolayers, 1 day exposure, morphological evaluation
From the text: The mouse hepatocytes were isolated by a collagenase digestion and cultured in microtest plates. The hepatocyte monolayers were exposed to the test Aerothricins in the culture system for 1 day. After the culture period, the hepatocytes were observed under a microscope and evaluated morphologically. The degree of the morphological alteration (degeneration) of the hepatocytes by the test Aerothricins were compared with WF11243 and LY303366.

Fusarium solani CF1088 = test: In vitro antifungal activity, broth micro-dilution; conditions: YNB medium with 0.2% agarose, 1-2 days at 35° C.
Experimental: (§1) The in vitro antifungal activities of the representative Aerothricins of the present study were evaluated by determining the 50% inhibitory concentration (IC50), which was calculated as the lowest concentration of an antifungal to inhibit the growth of fungus to […] turbidity compared with the drug-free control growth spectrophotometrically.
(§2) The IC50 values were determined by the broth micro-dilution procedure based on NCCLS Approved Standard with the following minor modifications (National Committee for Clinical Laboratory Standards. (1997) Reference method for broth dilution antifungal susceptibility testing for yeasts. Approved standard. Document M27-A). Yeast Nitrogen Base (YNB; Difco Lab.) supplemented with 1% glucose and 0.25% K2HPO4 was used as testing medium for yeast, the same medium solidified with 0.2% low melting point agarose (BRL) was used for filamentous fungi. Inoculum size was 1-3×10^4 cells/ml, and incubation was performed for 1-2 days at 35° C.

[1] = test system: Aspegillus fumigatus CF1003; test: In vitro antifungal activity, broth micro-dilution; conditions: YNB medium with 0.2% agarose, 1-2 days at 35° C.
Experimental: as §1, §2

Candida albicans CY1002 = test: In vitro antifungal activity, broth micro-dilution; conditions: YNB medium, 1-2 days at 35° C.
Experimental: as §1, §2

Structure (SMILES)	Cytotoxicity to hepatocyte (mouse hepatocytes) [µg/mL]	In vitro Antifungal activity, IC50, Fusarium solani CF1088 (Fusarium solani CF1088) [mg/L]	In vitro Antifungal activity, IC50, Aspegillus fumigatus CF1003 [1] [mg/L]	In vitro Antifungal activity, IC50, Candida albicans CY1002 (Candida albicans CY1002) [mg/L]
CCCCCCCCCCOc1ccc(CC[C@@H]2CC(=O)NC(C(C)O)C(=O)NC(C)C(=O)NC(Cc3ccc(O)cc3)C(=O)NC(C(C)C)C(=O)N3CC(O)CC3C(=O)NC(C(C)O)C(=O)NC(C(C)O)C(=O)N3CCC(O)C3C(=O)NC(C(O)CC(N)=O)C(=O)NCC(=O)NC(C(C)O)C(=O)NC(CCCN)C(=O)N2)cc1 (single isomer, unassigned) [Aerothricin 47]	>100	–	–	–
CCCCCCCCCCCCC[C@@H]1CC(=O)NC(C(C)O)C(=O)NC(C)C(=O)NC(Cc2ccc(OC)cc2)C(=O)NC(C(C)C)C(=O)N2CC(O)CC2C(=O)NC(C(C)O)C(=O)NC(C(C)O)C(=O)N2CCC(O)C2C(=O)NC(C(O)CC(N)=O)C(=O)NCC(=O)NC(C(C)O)C(=O)NC(CCCN(C)C)C(=O)O1 (stereo partly shown) [Aerothricin 12] ([ξT][ξA][ξY](Me)[ξV][ξHyp][ξT][ξT][X1][X2]G[ξT][X12]; linker N-C via X4)	–	2.20	0.10	0.09
CCCCCCCCCCCCC[C@@H]1CC(=O)NC(C(C)O)C(=O)NC(C)C(=O)NC(Cc2ccc(O)cc2)C(=O)NC(C(C)C)C(=O)N2CC(O)CC2C(=O)NC(C(C)O)C(=O)NC(C(C)O)C(=O)N2CCC(O)C2C(=O)NC(C(O)CC(N)=O)C(=O)NCC(=O)NC(C(C)O)C(=O)NC(CCCNC(=O)CNC)C(=O)O1 (stereo partly shown) [Aerothricin 14] ([ξT][ξA][ξY][ξV][ξHyp][ξT][ξT][X1][X2]G[ξT][ξOrn](Sar); linker N-C via X4)	>100	–	–	–
CCCCCCCCCCCCC[C@@H]1CC(=O)NC(C(C)O)C(=O)NC(C)C(=O)NC(Cc2ccc(O)cc2)C(=O)NC(C(C)C)C(=O)N2CC(O)CC2C(=O)NC(C(C)O)C(=O)NC(C(C)O)C(=O)N2CCC(O)C2C(=O)NC(C(O)CC(N)=O)C(=O)NCC(=O)NC(C(C)O)C(=O)NC(CCCNC(=O)C2CCCN2)C(=O)O1 (stereo partly shown) [Aerothricin 15] ([ξT][ξA][ξY][ξV][ξHyp][ξT][ξT][X1][X2]G[ξT][ξOrn](ξP); linker N-C via X4)	>100	–	–	–
CCCCCCCCCCCCC[C@@H]1CC(=O)NC(C(C)O)C(=O)NC(C)C(=O)NC(Cc2ccc(O)c(NC(=O)CN)c2)C(=O)NC(C(C)C)C(=O)N2CC(O)CC2C(=O)NC(C(C)O)C(=O)NC(C(C)O)C(=O)N2CCC(O)C2C(=O)NC(C(O)CC(N)=O)C(=O)NCC(=O)NC(C(C)O)C(=O)NC(CCCNC(=O)CN)C(=O)O1 (stereo partly shown) [Aerothricin 21] ([ξT][ξA][X16][ξV][ξHyp][ξT][ξT][X1][X2]G[ξT][ξOrn](Gly); linker N-C via X4)	>100	–	–	–
CCCCCCCCCCCCC[C@@H]1CC(=O)NC(C(C)O)C(=O)NC(C)C(=O)NC(Cc2ccc(O)cc2)C(=O)NC(C(C)C)C(=O)N2CC(O)CC2C(=O)NC(C(C)O)C(=O)NC(C(C)O)C(=O)N2CCC(O)C2C(=O)NC(C(O)CCN)C(=O)NCC(=O)NC(C(C)O)C(=O)NC(CCCN)C(=O)O1 (stereo partly shown) [Aerothricin 31] ([ξT][ξA][ξY][ξV][ξHyp][ξT][ξT][X1][ξOrn(3-OH)]G[ξT][ξOrn]; linker N-C via X4)	–	0.70	0.49	0.07
CCCCCCCCCCCCC[C@@H]1CC(=O)NC(C(C)O)C(=O)NC(C)C(=O)NC(Cc2ccc(O)c([N+](=O)[O-])c2)C(=O)NC(C(C)C)C(=O)N2CC(O)CC2C(=O)NC(C(C)O)C(=O)NC(C(C)O)C(=O)N2CCC(O)C2C(=O)NC(C(O)CC(N)=O)C(=O)NCC(=O)NC(C(C)O)C(=O)NC(CCCN)C(=O)N1 (stereo partly drawn) [Aerothricin 39] (cyclo(G[ξT][ξOrn][Hexadecanoyl(3R-amino)][ξT][ξA][ξTyr(3-NO2)][ξV][ξHyp][ξT][ξT][X1][X2]))	–	0.70	0.17	0.09
CCCCCOc1ccc(-c2ccc(CC[C@@H]3CC(=O)NC(C(C)O)C(=O)NC(C)C(=O)NC(Cc4ccc(O)c([N+](=O)[O-])c4)C(=O)NC(C(C)C)C(=O)N4CC(O)CC4C(=O)NC(C(C)O)C(=O)NC(C(C)O)C(=O)N4CCC(O)C4C(=O)NC(C(O)CC(N)=O)C(=O)NCC(=O)NC(C(C)O)C(=O)NC(CCCN)C(=O)N3)cc2)cc1 (stereo partly shown) [Aerothricin 54] ([ξT][ξA][ξTyr(3-NO2)][ξV][ξHyp][ξT][ξT][X1][X2]G[ξT][ξOrn]; linker N-C via X11)	–	0.74	0.17	0.15
CCCCCCCCCCCCCCCNC(=O)[C@@H]1CC(=O)NC(C(C)O)C(=O)NC(C)C(=O)NC(Cc2ccc(O)cc2)C(=O)NC(C(C)C)C(=O)N2CC(O)CC2C(=O)NC(C(C)O)C(=O)NC(C(C)O)C(=O)N2CCC(O)C2C(=O)NC(C(O)CC(N)=O)C(=O)NCC(=O)NC(C(C)O)C(=O)NC(CCCN(C)C)C(=O)N1 (stereo partly drawn) [Aerothricin 75] ([ξT][ξA][ξY][ξV][ξHyp][ξT][ξT][X1][X2]G[ξT][X12]D-X13; lactam N-13)	–	1.40	0.10	0.15
CCCCCCCCCCCCCCCNC(=O)[C@@H]1CC(=O)NC(C(C)O)C(=O)NC(C)C(=O)NC(Cc2ccc(O)c([N+](=O)[O-])c2)C(=O)NC(C(C)C)C(=O)N2CC(O)CC2C(=O)NC(C(C)O)C(=O)NC(C(C)O)C(=O)N2CCC(O)C2C(=O)NC(C(O)CC(N)=O)C(=O)NCC(=O)NC(C(C)O)C(=O)NC(CCCN)C(=O)N1 (stereo partly drawn) [Aerothricin 77] ([ξT][ξA][ξTyr(3-NO2)][ξV][ξHyp][ξT][ξT][X1][X2]G[ξT][ξOrn]D-X13; lactam N-13)	–	0.67	0.10	0.13
CCCCCCCCCCCCCCC[C@@H]1CC(=O)NC(C(C)O)C(=O)NC(C)C(=O)NC(Cc2ccc(O)cc2)C(=O)NC(C(C)C)C(=O)N2CC(O)CC2C(=O)NC(C(C)O)C(=O)NC(C(C)O)C(=O)N2CCC(O)C2C(=O)NC(C(O)CC(N)=O)C(=O)NCC(=O)NC(C(C)O)C(=O)NC(CCCN)C(=O)N1C (stereo partly shown) [Aerothricin 95] (cyclo(G[ξT][ξOrn][X15][ξT][ξA][ξY][ξV][ξHyp][ξT][ξT][X1][X2]))	–	0.74	0.10	0.14
CCCCCCCCCCCCC[C@@H]1CC(=O)NC(C(C)O)C(=O)NC(C)C(=O)NC(Cc2ccc(O)cc2)C(=O)NC(C(C)C)C(=O)N2CC(O)CC2C(=O)NC(C(C)O)C(=O)NC(C(C)O)C(=O)N2CCC(O)C2C(=O)NC(C(O)CC(N)=O)C(=O)NCC(=O)NC(C(C)O)C(=O)NC(CCCN(CCCN)C(=O)C(CCCN)NCCCN)C(=O)O1 (stereo partly shown) [Aerothricin 136] ([ξT][ξA][ξY][ξV][ξHyp][ξT][ξT][X1][X2]G[ξT][X3](X14); linker N-C via X4)	–	0.04	0.28	0.20
